We go through four molecules from PMC3650558, “A Yeast Chemical Genetic Screen Identifies Inhibitors of Human Telomerase” (Chemistry & Biology, 2013).

One data set has as its system pdr1DBD-cyc8 strain. The data set can be described thus: Growth of hyperpermeable yeast strain. The following applies: 0.03-1 μM, irrespective of human telomerase expression status.
The target of data set [1] is purified human telomerase. Set-up: method as in Damm et al., 2001; Pascolo et al., 2002. The following applies: human telomerase in vitro; ref Damm et al., 2001; Pascolo et al., 2002; cited from earlier work.
Data set [2] concerns W303-1a cells expressing Cdc13-hTERT-FLAG + hTR (active human telomerase). Put plainly: Yeast growth rescue screen (time to reach OD595 of 0.62 relative to DMSO). The following applies: for Z Score: z = (x − μ)/σ of normalized time difference over all compounds in the bioactive library. In kind it is cell-based, S. cerevisiae. On the procedure:
These 678 compounds were selected from a 50,000 member Maybridge library based upon a spectrum of growth inhibitory bioactivity in a drug pump-deficient yeast strain ([Ishizaki et al., 2010]). […] In each 96-well assay plate, growth of the query strain in the presence of compound (20 μM), beginning at the onset of the experimental growth phase (i.e., time course 2, from 43 hr onward), was normalized against DMSO treatment (Figures 2C and 2D; Figures S2D and S2E).
To conduct the HTS (Figure 2A), 98 μl (3 × 10^5 cells per milliliter) was dispensed into 96-well clear flat-bottomed microplates (Corning Costar) using a Biomek FX (Beckman Coulter). A small molecule bioactive library of 678 compounds was utilized for the screen, consisting of compounds selected from the Maybridge collection (Thermo Fisher Scientific). […] DMSO at 2% (v/v) and 20 μM cycloheximide (Sigma) final concentration were added as controls to each assay plate, into alternate wells in columns 1 and 12 using the Span 8 module of the Biomek FX. Nine plates were analyzed, 80 compounds per plate, with 16 wells for controls. After compound addition, the plates were sealed and followed for time course 1 (up to 39 hr) on a Sunrise plate reader (Tecan) at absorbance 595 nm, maintained at 30°C and shaking at 564 rpm. After time course 1, cells in assay plates were diluted to 3 × 10^5 cells per milliliter in fresh media containing galactose using the Biomek FX. The plates were preincubated in galactose-containing media at 30°C for 3 hr (to allow a period of recovery from the stationary phase in the absence of compound), 2 μl of each compound or control was added to plates as described earlier, returned to the plate readers, and followed for time course 2 (up to 86 hr), for a total of ∼128 elapsed hours.
Growth curves were analyzed using a growth curve analysis tool implemented in R. After smoothing of growth curves, the time required for cells induced with human telomerase to reach an OD595 of 0.62 in the presence of each compound during time course 2 was derived using a data-based approach ([Warringer and Blomberg, 2003]). The time to reach an OD595 of 0.62 for each compound was normalized to the average DMSO value from each assay plate (to arrive at a normalized value, x, for each compound) and used to generate heatmaps as shown in Figure 2C. Z scores were calculated based on the equation: z = (x − μ)/σ, where μ is the mean time difference for all compounds in the bioactive library and σ is the SD for all compounds in the bioactive library.

The next data set concerns W303-1a control strains. The data set can be described thus: Growth of control yeast strains. Conditions: W303-1a cells alone; 500, 150, 50, 10 or 1 μM. In kind it is cell-based, S. cerevisiae.
Data set [3] concerns the target T1, purified recombinant human telomerase (Homo sapiens, UniProt O14746).
T1 construct: made in house
Put plainly: Telomerase repeat amplification protocol (TRAP) assay, purified enzyme. In kind it is biochemical. Conditions: 200, 100, 20, 10 or 2 μM; 15 min preincubation. On the procedure: Figure 3 Assessment of Human Telomerase Inhibition In Vitro (A) Chemical structures of BIBR1532 and hit compounds SEW05920, SPB03924, and CD11359. (B) Representative gel of the telomerase repeat addition protocol (TRAPeze, Millipore) after addition of RJC00417, SEW05920, SPB03922, and RH00646 to recombinant human telomerase purified in vitro ([Beattie et al., 1998]; [Oulton and Harrington, 2004]) (n = 3). Lanes 1–5, treatment with 200, 100, 20, 10, or 2 μM RJC00417; lanes 6–10, treatment with 200, 100, 20, 10, or 2 μM SEW05920; lanes 11–15, treatment with 200, 100, 20, 10, or 2 μM SPB03922; lanes 16–20, treatment with 200, 100, 20, 10, or 2 μM RH00646; lane 21, treatment with 2% v/v DMSO; lane 22, pretreatment with ribonuclease A. IC; internal PCR control (36 base pairs [bp]). (C) Representative gel of the relative telomerase activity (RTA) by ELISA-TRAP (TeloTAGGG Telomerase PCR ELISA-PLUS, Roche Diagnostics) of purified human telomerase upon incubation with BIBR1532 (lanes 1–4), SEW05920 (lanes 5–8), SPB03924 (lanes 11–14), CD11359 (lanes 15–18) (concentration indicated in micromolar), 2% v/v DMSO (lane 9), or heat (lane 10). IC; internal PCR control (216 bp). (D) Levels of RTA (%) after normalization to a 216 bp internal control, as shown in (C). Error bars indicate SD, n = 3. For synthesis of BIBR1532, see Figure S2.
As a control, we observed no inhibition of the Taq polymerase used for amplification of telomerase extension products in the TRAP (data not shown). […]
From the high-throughput analysis, 51 compounds with a neutral effect or that rescued the growth of strains expressing active human telomerase (relative to DMSO) were picked from the master HTS plates and re-analyzed (Figure 2C, and data not shown). […]
(§1) Telomerase activity was assessed using the Telomere Repeat Amplification Protocol (TRAPeze, Millipore) or ELISA-TRAP (TeloTAGGG Telomerase PCR ELISA-PLUS, Roche Diagnostics) following manufacturers’ instructions. […]

Data set [4] has as its target T2, telomerase activity in crude HeLa cell extracts (Homo sapiens, UniProt O14746).
T2 construct: telomerase activity in crude HeLa cell extracts; endogenous in cells; host or cells: HeLa
The data set can be described thus: TRAP assay in crude HeLa cell extracts. Format: biochemical. The method, then:
As a control, we observed no inhibition of the Taq polymerase used for amplification of telomerase extension products in the TRAP (data not shown). In addition, as negative controls, two other compounds that were not identified as hits (SPB03922 and RH00646) were tested and confirmed to exert no effect upon telomerase activity in vitro (Figure 3B). Using a semiquantitative assay for the detection of telomerase elongation products (ELISA-TRAP) the in vitro half maximal inhibitory concentration (IC50) values of the compounds fell between 1 and 6.5 μM (Figures 3C and 3D). Similar IC50 values were also observed against purified recombinant murine telomerase (data not shown). These values are higher than that of BIBR1532 (IC50 = 0.1 μM) ([Damm et al., 2001]; [Pascolo et al., 2002]) but within a concentration range typical of first hits from commercial libraries. SEW05920, SPB03924, and CD11359 are heteroaromatic small molecules that differ structurally from BIBR1532 (Figures 3A and S2F).
Supplemental Experimental Procedures
Follow-up analysis of compounds identified in HTS
From the high-throughput analysis, 51 compounds with a neutral effect or that rescued the growth of strains expressing active human telomerase (relative to DMSO) were picked from the master HTS plates and re-analyzed (Figure 2C, and data not shown). These compounds were tested on a control strain, W303-1a expressing hTR and Cdc13-hTERT lacking the Cdc13 DBD, and 7 compounds were excluded from further analysis because they elicited a non-specific growth delay of the control strain. The remaining 44 compounds were subjected to secondary screens against the query strain expressing active human telomerase (n=2). Based on these results, twenty-eight compounds were purchased for further verification against the control and […]
as §1

Entries after “also recorded” stand apart in the source; their conditions may differ.

T2 sequence (O14746 whole entry): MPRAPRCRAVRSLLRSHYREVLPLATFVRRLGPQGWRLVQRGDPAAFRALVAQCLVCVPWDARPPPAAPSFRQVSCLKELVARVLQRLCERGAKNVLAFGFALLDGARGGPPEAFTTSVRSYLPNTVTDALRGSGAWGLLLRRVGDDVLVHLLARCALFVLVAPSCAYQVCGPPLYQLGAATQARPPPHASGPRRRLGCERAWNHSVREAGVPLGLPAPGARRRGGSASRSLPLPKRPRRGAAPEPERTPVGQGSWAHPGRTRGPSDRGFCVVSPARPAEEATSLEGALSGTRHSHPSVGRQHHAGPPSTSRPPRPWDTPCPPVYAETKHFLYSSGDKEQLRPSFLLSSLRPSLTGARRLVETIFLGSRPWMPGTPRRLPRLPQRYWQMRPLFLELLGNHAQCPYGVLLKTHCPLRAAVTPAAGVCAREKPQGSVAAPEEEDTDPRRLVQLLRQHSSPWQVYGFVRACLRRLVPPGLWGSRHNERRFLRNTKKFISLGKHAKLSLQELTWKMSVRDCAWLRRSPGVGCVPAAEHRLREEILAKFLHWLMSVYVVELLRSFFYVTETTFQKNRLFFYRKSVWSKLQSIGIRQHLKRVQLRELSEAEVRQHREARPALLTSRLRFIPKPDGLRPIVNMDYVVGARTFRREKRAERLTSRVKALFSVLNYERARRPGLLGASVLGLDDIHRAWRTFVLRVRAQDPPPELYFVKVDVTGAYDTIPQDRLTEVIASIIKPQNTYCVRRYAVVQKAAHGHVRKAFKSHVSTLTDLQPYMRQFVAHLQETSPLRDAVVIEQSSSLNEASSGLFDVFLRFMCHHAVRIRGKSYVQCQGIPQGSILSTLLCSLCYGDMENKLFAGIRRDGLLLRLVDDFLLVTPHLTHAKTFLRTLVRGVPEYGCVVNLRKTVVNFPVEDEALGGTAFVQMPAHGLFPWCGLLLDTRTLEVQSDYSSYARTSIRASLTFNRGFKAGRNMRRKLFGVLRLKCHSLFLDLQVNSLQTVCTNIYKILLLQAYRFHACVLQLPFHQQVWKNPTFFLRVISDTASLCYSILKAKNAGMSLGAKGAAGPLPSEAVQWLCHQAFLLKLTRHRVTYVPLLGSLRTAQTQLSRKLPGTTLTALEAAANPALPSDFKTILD
T2 sequence (O60832 whole entry partner): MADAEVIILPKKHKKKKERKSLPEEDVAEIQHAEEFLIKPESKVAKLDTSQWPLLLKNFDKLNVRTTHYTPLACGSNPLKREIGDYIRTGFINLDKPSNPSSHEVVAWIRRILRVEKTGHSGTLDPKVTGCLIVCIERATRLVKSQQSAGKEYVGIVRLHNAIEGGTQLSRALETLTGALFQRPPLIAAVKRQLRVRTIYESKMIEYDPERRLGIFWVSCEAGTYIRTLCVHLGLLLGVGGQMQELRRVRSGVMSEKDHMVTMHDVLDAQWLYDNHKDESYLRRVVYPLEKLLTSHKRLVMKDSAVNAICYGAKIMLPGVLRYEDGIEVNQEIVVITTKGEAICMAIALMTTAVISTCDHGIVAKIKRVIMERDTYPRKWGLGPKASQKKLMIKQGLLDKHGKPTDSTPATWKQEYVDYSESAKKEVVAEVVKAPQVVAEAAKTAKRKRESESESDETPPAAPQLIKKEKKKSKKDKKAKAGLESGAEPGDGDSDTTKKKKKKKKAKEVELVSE
T2 sequence (Q9NPE3 whole entry partner): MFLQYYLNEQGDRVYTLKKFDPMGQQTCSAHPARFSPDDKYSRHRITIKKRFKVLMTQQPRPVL
T2 sequence (Q9NX24 whole entry partner): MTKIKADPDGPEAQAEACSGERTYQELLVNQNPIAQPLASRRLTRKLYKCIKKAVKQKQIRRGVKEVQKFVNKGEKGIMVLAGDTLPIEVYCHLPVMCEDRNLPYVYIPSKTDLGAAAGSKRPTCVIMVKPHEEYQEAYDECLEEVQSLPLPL
T2 sequence (Q9NY12 whole entry partner): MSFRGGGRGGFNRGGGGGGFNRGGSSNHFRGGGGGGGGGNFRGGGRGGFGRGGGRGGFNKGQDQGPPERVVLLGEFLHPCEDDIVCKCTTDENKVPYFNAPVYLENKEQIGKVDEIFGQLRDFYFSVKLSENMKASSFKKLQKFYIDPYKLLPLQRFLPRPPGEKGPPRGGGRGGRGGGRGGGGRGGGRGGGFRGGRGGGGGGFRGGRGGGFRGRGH
T2 sequence (Q9BUR4 whole entry partner): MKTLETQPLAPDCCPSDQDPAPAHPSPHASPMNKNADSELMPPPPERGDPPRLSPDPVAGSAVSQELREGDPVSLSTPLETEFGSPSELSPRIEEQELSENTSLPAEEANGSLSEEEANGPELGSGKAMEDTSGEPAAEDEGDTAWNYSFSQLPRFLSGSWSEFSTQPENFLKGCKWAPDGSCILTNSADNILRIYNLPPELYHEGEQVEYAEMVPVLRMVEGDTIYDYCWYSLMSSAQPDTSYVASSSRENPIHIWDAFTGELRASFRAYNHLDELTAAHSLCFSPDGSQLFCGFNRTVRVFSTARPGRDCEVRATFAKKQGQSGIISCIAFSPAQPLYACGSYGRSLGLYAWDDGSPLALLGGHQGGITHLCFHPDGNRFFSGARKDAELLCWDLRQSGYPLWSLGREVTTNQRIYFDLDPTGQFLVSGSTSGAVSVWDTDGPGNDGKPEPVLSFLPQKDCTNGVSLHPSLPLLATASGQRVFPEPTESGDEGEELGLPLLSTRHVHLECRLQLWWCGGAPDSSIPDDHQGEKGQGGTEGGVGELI
T1 sequence (O14746 whole entry): as the sequence (O14746 whole entry) above

`C/C(=C\C(=O)Nc1ccccc1C(=O)O)c1ccc2ccccc2c1` [BIBR1532, 2-[(E)-3-naphthalen-2-yl-but-2-enoylamino]-benzoic acid]: the “toxicity in hyperpermeable strain pdr1DBD-cyc8” value in the data set with pdr1DBD-cyc8 strain is given as “toxic; also recorded: cytotoxic across most concentrations”. In addition, in data set [1], the IC50 (usually the midpoint of a concentration-inhibition curve) was 0.1 µM. The “effect upon growth of yeast expressing human telomerase” value in data set [2] (500, 150, 50, 10 or 1 μM) is on record as “had no effect”. In addition, the “effect upon growth of control strains” value with W303-1a control strains was “had no effect”.

In the case of `N=C(N)Nc1nc(-c2cc(Cl)sc2Cl)cs1` [CD11359], in data set [3], the “inhibition of purified recombinant human telomerase (TRAP)” value is on record as “dose-dependent inhibition”. For the same molecule, in data set [2], the “Z Score” value was 1.7. Further, the “inhibition of telomerase activity in crude HeLa cell extracts (TRAP)” value (from here on “inhibition of telomerase activity”) in data set [4] is recorded as “dose-dependent inhibition”.

For `Cc1ccc(S(=O)(=O)NC(=O)Nc2ccc(Sc3ccccc3)nc2Sc2ccccc2)cc1` [SEW05920], the “inhibition of purified recombinant human telomerase (TRAP)” value in data set [3] is on record as “inhibited telomerase activity in vitro; also recorded: dose-dependent inhibition”. Further, in data set [2] (follow-up subscreens, re-plated from master HTS plate and repurchased compound), the “growth recovery in follow-up screens” value is ~8 h. The “growth recovery in the initial HTS” value in data set [2] (initial HTS, 20 μM) was “did not exhibit significant growth recovery”. Further, the “Z Score” value in data set [2] is recorded as 1.7. The “inhibition of telomerase activity” value in data set [4] is “dose-dependent inhibition”.

With `Cc1cc(C(=O)O/N=C(\N)CSc2ncccc2C(F)(F)F)no1` [SPB03924], the “inhibition of purified recombinant human telomerase (TRAP)” value in data set [3] was “dose-dependent inhibition”. Also, the “Time (hr) Difference at an OD595 of 0.62 Relative to DMSO” value in data set [2] (compound 20 μM, time course 2, growth rescue of strain expressing active human telomerase) is 12 h. Further, the “Z Score” value in data set [2] came out at 2.3. For the same molecule, the “inhibition of telomerase activity” value in data set [4] is given as “dose-dependent inhibition”.
